Values after ≈ are worked out from the molar mass of the structure shown. Read-outs that look alike come from different tables or passages of the source.
Experiments:
[1] = male, Crj:CD IGS, rat, in vivo, po, 5 mg/kg
Method: (§1) The Comparative compound was also evaluated by the same procedure.
(§2) The test substance was orally administered to fasted rats (7 week old male Crj:CD IGS rats purchased from Charles River Laboratories Japan, Inc.) at a dose of 5 mg/kg.
(§3) Animals of absorption test group (3 animals per group) were sacrificed by bleeding under etherization at 0.25, 0.5, 1, 2, 4, and 8 hours after the drug administration, and blood, lever, kidney, and lung were collected. The blood was centrifuged (3000 rpm×15 minutes, 4° C.) after coagulation to collect serum. Tissue was homogenized after adding 3 to 5 mL of 0.1 mol/l phosphate buffer (pH 7.0), and the supernatant was collected from the homogenate (3000 rpm×15 minutes, 4° C.).
(§4) Animals of excretion test group (3 animals per group) were placed in a metabolic cage, and the urine of 0 to 4 hours and 4 to 24 hours after the administration was collected in a water-cooled container. Simultaneously with the collection of the urine, the cage was also washed with about 15 mL of 0.1 mol/l phosphate buffer (pH 7.0) to collect the urine attached to the cage. For evaluation of conjugates such as glucuronide, the collected sample was also aliquoted and hydrolyzed with an equal amount of 1 mol/l aqueous solution of sodium hydroxide, and the hydrolysate was neutralized with 0.5 mol/l hydrochloric acid and measured for its concentration. The concentration was measured by LC-MS/MS method.
(§5) Pharmacokinetic parameters of the each drug in rat were calculated by from the time course of the average concentration by using pharmacokinetic analysis software PSAG-CP (AS Medica Inc.) in a manner not dependent on the model animal.

[2] = pharmacokinetics in rat (concentration in blood and organs, urine excretion) after oral administration; conditions: fasted rat, oral 5 mg/kg;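 note: fasted 7-week-old rats, three per group, tissue sampled up to 8 h post-dose and urine collected over 0–24 h, with conjugates measured after alkaline hydrolysis, concentrations by LC-MS/MS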
Method: as §1, §2, §3, §4, §5

E. faecalis, ATCC 19433 = assay: antibacterial activity (MIC), standard method of Japanese Society of Chemotherapy; conditions: Enterococcus faecalis, ATCC19433, E. faecalis
hERG K+ channel = hERG K+ channel (Homo sapiens, UniProt Q12809); assay: hERG-K^+ channel blocking effect
E. coli NIHJ = assay: antibacterial activity (MIC), standard method of Japanese Society of Chemotherapy; conditions: Escherichia coli
P. vulgaris, 08601 = assay: as above; conditions: Proteus vulgaris, 08601, P. vulgaris
P. aeruginosa, 32104 = assay: as above; conditions: Pseudomonas aeruginosa
[3] = test system: S. pneumoniae, J24 (penicillin-intermediate resistant bacteria); assay: as above; conditions: Streptococcus pneumoniae
P. aeruginosa, 32121 = assay: as above; conditions: Pseudomonas aeruginosa
[4] = design: species or system guinea pigs (Slc:Hertley); conditions: guinea pig, in vivo
Method: Guinea pig maximization test (GPMT) which is a widely accepted model for delayed antigenicity was conducted according to the method of Mugnusson et al. (J. invest. Dermatol., 52, 1969) by using a cutaneous sensitization concentration of 1% and a patch sensitization and induction concentration of 10%. At day 1, the animal was sensitized by cutaneously administering the test substance (the quinolone compounds and the control: vehicle, vaseline) (1% solution in physiological saline+FCA emulsion) at the back of the head of the shaved guinea pigs (7 week old male Slc:Hertley). At day 7, lauryl sodium sulfate (SLC) was applied for stimulus (adjuvant treatment), and on the next day, the test substance coated on a wax paper was patched onto the shaved skin to for sealed sensitization, and after 48 hours (at day 10), the waxed paper was removed. The skin reaction was observed upon the removal. On day 22, the test substance (10%) was patched onto the anterior side of the body for induction, and the induction patching was removed after 24 hours. On the next day (at day 24) and the next day (at day 25), the skin reaction was evaluated according to the description of the document as mentioned above. Erythema and edema were scored, and the case with the total score of 2 or higher was evaluated to be positive with the maximum of the score being 7.

S. epidermidis, 56500 = assay: antibacterial activity (MIC), standard method of Japanese Society of Chemotherapy; conditions: Staphylococcus epidermidis, 56500, S. epidermidis
in vivo = conditions: female, cynomolgus monkey, po, 5 mg/kg
S. aureus, 209P = assay: antibacterial activity (MIC), standard method of Japanese Society of Chemotherapy; conditions: Staphylococcus aureus
[5] = test system: S. aureus, 87037 (LVFX-resistant MRSA); assay: as above; conditions: Staphylococcus aureus, MRSA, S. aureus, 87037 (LVFX-resistant MRSA)
[6] = female, cynomolgus monkey, in vivo, 5 mg/kg

hERG K+ channel, sequence (Q12809 whole entry): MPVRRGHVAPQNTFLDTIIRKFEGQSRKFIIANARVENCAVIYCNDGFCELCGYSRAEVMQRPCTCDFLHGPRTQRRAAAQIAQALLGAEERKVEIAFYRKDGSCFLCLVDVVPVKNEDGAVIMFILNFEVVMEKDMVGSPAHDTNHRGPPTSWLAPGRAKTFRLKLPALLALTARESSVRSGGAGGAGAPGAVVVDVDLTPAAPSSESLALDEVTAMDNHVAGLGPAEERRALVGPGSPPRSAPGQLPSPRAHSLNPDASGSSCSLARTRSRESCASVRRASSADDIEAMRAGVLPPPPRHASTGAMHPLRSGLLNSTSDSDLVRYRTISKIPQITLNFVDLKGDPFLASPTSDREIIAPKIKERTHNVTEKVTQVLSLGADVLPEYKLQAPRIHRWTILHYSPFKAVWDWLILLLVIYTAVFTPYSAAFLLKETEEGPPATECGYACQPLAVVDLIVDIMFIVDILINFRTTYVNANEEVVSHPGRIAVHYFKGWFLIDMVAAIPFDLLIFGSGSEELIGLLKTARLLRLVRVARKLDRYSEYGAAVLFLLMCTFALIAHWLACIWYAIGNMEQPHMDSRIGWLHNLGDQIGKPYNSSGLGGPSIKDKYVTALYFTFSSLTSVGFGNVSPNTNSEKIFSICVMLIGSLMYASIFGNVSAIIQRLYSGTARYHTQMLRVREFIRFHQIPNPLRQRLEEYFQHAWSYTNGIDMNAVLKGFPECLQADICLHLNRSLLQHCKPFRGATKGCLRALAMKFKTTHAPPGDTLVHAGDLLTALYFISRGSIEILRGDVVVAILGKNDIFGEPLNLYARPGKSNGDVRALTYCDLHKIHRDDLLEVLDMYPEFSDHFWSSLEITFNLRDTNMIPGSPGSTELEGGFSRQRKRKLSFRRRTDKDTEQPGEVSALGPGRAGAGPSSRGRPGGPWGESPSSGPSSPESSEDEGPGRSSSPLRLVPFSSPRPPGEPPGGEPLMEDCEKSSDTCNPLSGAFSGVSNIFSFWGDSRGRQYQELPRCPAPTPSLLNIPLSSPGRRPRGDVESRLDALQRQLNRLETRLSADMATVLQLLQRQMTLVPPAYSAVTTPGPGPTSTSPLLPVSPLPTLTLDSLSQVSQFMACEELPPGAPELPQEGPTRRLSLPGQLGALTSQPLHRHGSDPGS

## COc1c(N2C[C@@H]3CCCN[C@@H]3C2)c(F)cc2c(=O)c(C(=O)O)cn(C3CC3)c12 [MFLX, moxifloxacin, reference compound]
[1]
  Recovery (%) in urine in relation to the amount administered, Recovery (%) including conjugate: 30.8%
  Serum Cmax (0.25 h): 1.49 µg/mL
[2]
  Tissue Cmax, Lung: 4.69 µg/g
E. faecalis, ATCC 19433
  MIC: 0.2 µg/mL (≈ 0.498 µM)
hERG K+ channel
  inhibition at 30 µM: 33.9 ± 8.3%
  inhibition at 100 µM: 44.6 ± 10.2%
  inhibition at 300 µM: 69.9 ± 8.3%
E. coli NIHJ
  MIC: 0.012 µg/mL (≈ 0.0299 µM)
P. vulgaris, 08601
  MIC: 0.025 µg/mL (≈ 0.0623 µM)
P. aeruginosa, 32104
  MIC: 0.39 µg/mL (≈ 0.972 µM)
[3]
  MIC: 0.1 µg/mL (≈ 0.249 µM)
P. aeruginosa, 32121
  MIC: 0.2 µg/mL (≈ 0.498 µM)
[4]
  Evaluation in GPMT: Negative
[4]; male, Slc:Hertley
  Average score in GPMT: 0
S. epidermidis, 56500
  MIC: 0.2 µg/mL (≈ 0.498 µM)
In vivo
  AUC(0-t): 6640 ng·h/mL
S. aureus, 209P
  MIC: 0.05 µg/mL (≈ 0.125 µM)
[5]
  MIC: 1.56 µg/mL (≈ 3.89 µM)
[6]
  Recovery (%) in urine in relation to the amount administered, Recovery (%) including conjugate: 12.2%
[6]; po
  Serum Cmax: 1.03 µg/mL
